Earlier results in patent US7087219B2, “Toothpaste containing anticancer agents” (priority 2003, dated 2006).

Tests used:
[1] = according to publications and patents (Burzynski et al. 1986)
[2] = general statement; marketed as a food supplement

O=C1CCC(NC(=O)Cc2ccccc2)C(=O)N1 (centres unmarked) [3-N-phenylacetylamino-2,6-piperidinedione]
efficacy in treating cancers in clinical trials [1]: effective in treating a variety of cancers in clinical trials
toxicity [2]: completely non-toxic
